Reference: patent US9254296B2, “Pharmaceutical composition comprising vitamin D analogue and cosolvent-surfactant mixture” (LEO PHARMA A/S, priority 2009, dated 2016)

Tests used:
[1] = test system: gene encoding cathelicidin; experiment: Cathelicidin target gene activation assay on reconstructed human epidermis; assay type: cell-based; conditions: 5%, 10% or 15% by weight of glycerol in the composition
Text: In psoriasis, the level of cathelicidin is increased in lesional skin of psoriasis patients. […] This finding has been utilized to develop an assay in which the uptake and biological activity of calcipotriol in human keratinocytes from the tested compositions has been determined by measuring the level of induction of the gene encoding cathelicidin.
In the assay, compositions A, B, C, F, G, I, J, K, L prepared as described in Example 1 above were applied topically in triplicate on reconstructed human epidermis consisting of normal human keratinocytes cultured for 12 days on 0.5 cm^2 polycarbonate filters (available from SkinEthic® Laboratories, Nice, France) in an amount of 10 μl. The tissue was treated for two days followed by separation of the epidermis from the polycarbonate filter and snap-frozen in liquid nitrogen. RNA was extracted from the cells and cDNA synthesized by conventional procedures. Quantitative real-time PCR (qPCR) was then performed using the following assays from Applied Biosystems: CAMP Hs0018038_ml and GAPDH Hs99999905_ml. The expression levels of cathelicidin were normalized to GAPDH and a relative quantification was made by comparison with Daivonex® ointment.

IL-1α = experiment: Release of IL-1α from calcipotriol ointment containing glycerol; conditions: 5%, 10%, 15% by weight of glycerol in a calcipotriol ointment
[2] = one study, M. Hannuksela et al. 1975; cited from earlier work

Row | SMILES | effect on biological activity of calcipotriol (expression of cathelicidin) [1] | release of IL-1α (IL-1α) | number of irritant reactions [2] [%]
1 | OCC(O)CO [glycerol] | potentiating the biological activity of calcipotriol | reduce the release of IL-1α in a dose-dependent manner | –
2 | CC(O)CO (stereo not drawn) [propylene glycol] | – | – | 12.5
